Assay results taken from patent US20210346354A1, “MACROPINOCYTOSIS IN CANCER” (Memorial Sloan-Kettering Cancer Center, priority 2015, published 2021).

Assays:
K-Ras^G12D MEFs = experiment: Uptake of fluorescently labeled dextran or albumin; type: cell-based, mouse; settings: pre-treated 1 h with 250 nM torin 1; 30 min uptake
Protocol: To characterize how cells derive leucine from extracellular proteins, cellular albumin uptake was investigated using constitutively fluorescent albumin and intracellular albumin proteolysis using a self-quenched albumin that emits fluorescence upon degradation (DQ-BSA) (Reis et al., 1998). […] It was then determined whether lysosomal albumin degradation was required to support growth during leucine starvation. […] Ras GTPases can promote cellular uptake of macromolecules through macropinocytosis (Bar-Sagi and Feramisco, 1986). […] To investigate whether this endocytic pathway contributed to albumin-dependent growth, cells were treated with the Na^+/H^+ exchange inhibitor EIPA, which blocks macropinocytosis but not other endocytic pathways (West et al., 1989).
To distinguish these possibilities, it was first tested whether mTORC1 inhibition increased internalization of extracellular macromolecules. […] It was next examined whether mTORC1 inhibition affected lysosomal degradation of internalized proteins.

mTORC1 = mTORC1 re-activation after 1 h EAA starvation, Western blotting against phosphorylated S6K1; type: cell-based, mouse; settings: wild type and K-Ras^G12D MEFs; EAA-free medium with 1-3% albumin; 500 nM torin 1 added at onset of EAA starvation
Protocol: Cells were rinsed with ice-cold PBS and detached from culture plates by incubation with ice-cold trypsin (0.05%). Trypsin was inactivated with ice-cold serum, cells pelleted and rinsed with ice cold PBS. Cells were lysed in ice-cold lysis buffer [50 mM HEPES, pH 7.4, 40 mM […], 2 mM EDTA, 1 mM Na Orthovandanate, 50 mM NaF, 10 mM Na Pyrophosphate, 10 mM Na Glycerophosphate, 1% Triton X-100, 1×Halt protease and phosphatase inhibitor cocktails (Thermo Scientific)] for 15 min, and soluble lysate fractions isolated by centrifugation at 16,000 g for 10 min. Protein concentrations were determined with the Pierce BCA Protein Assay (Thermo Scientific) and equal amounts of proteins analyzed by SDS gel electrophoresis and Western blotting following standard protocols.
(§1) Cell culture experiments were performed at 37° C. and 5% CO2 in DMEM/F12 with 10% dialyzed FBS (molecular weight cut-off 10,000; Gemini Biosystems), 100 U/mL penicillin, 100 μg/mL streptomycin, 5 mM glucose and 2 mM glutamine. For proliferation assays, MEFs were plated in complete medium, 5 h later briefly rinsed and then cultured in starvation medium as indicated. For EAA titration experiments, EAAs were supplemented at indicated percentages of 1×MEM amino acid solution (M5550, Sigma). Cancer cell lines were cultured in complete medium for 1 day prior to starvation. Numbers of adherent cells, which are >95% viable as assessed by Trypan Blue exclusion were determined using a Multisizer 4 Coulter Counter (Beckman). For mTOR activation and localization experiments, cells were rinsed and then incubated in EAA starvation medium (DMEM/F12 lacking all amino acids except glutamine) for 1 h, and subsequently placed in medium supplemented with EAAs (1×MEM amino acid solution), albumin (3%, if not stated otherwise) or fresh EAA-free starvation medium for indicated periods of time.
Cells can sense EAAs through the mTORC1 pathway, which integrates amino acid levels with inputs from growth factor signaling to promote cell growth (Ma and Blenis, 2009; Shimobayashi and Hall, 2014). When cells are placed in EAA-free medium, the ability of mTORC1 to phosphorylate downstream targets is repressed. To test if catabolism of extracellularly provided proteins could restore mTORC1 activity in the absence of EAAs, mTORC1 was inactivated by subjecting MEFs to 1 h EAA starvation. Fresh medium containing EAAs or different concentrations of albumin was then added and mTORC1 re-activation assessed by Western blotting against phosphorylated S6K1.

[1] = system: Ulk1/2 wild type and DKO MEFs expressing K-Ras^G12V; experiment: DQ-BSA proteolysis in Ulk1/2 wild type and DKO MEFs expressing K-Ras^G12V; type: cell-based, mouse; settings: 250 nM torin 1; Ulk1/2 wild type versus DKO
Protocol: (§2) K-Ras^G12D MEFs were pre-treated for 1 h with 250 nM torin 1 and then incubated with fluorescently labeled dextran or albumin. Intracellular dextran or albumin was quantified after 30 min uptake. Data are represented as mean±STDEV (n=6 fields of view with >10 cells each). P-values were calculated using a two-tailed unpaired t-test. n.s. not significant. […] Uptake of fluorescently labeled dextran was quantified after 30 min uptake. Data are represented as mean±STDEV (n=8 fields of view with >10 cells each). P-values were calculated using a two-tailed unpaired t-test. n.s. not significant. […] K-Ras^G12D MEFs were pre-treated for 1 h with 250 nM torin 1, then incubated with fluorescently labeled dextran for indicated periods of time. Data are represented as mean±STDEV (n=8 fields of view with >10 cells each). […] Mean fluorescence intensity per cell was determined after 6 h of DQ-BSA uptake. Data are represented as mean±STDEV (n=7 fields of view with >15 cells each). P-values were calculated using a two-tailed unpaired t-test. ***p<0.001, n.s. not significant. […] DQ-BSA fluorescence intensity is represented as mean±STDEV (n=7 fields of view with >20 cells each). P-values were calculated using a two-tailed unpaired t-test. ***p<0.001. […] DQ-BSA fluorescence intensity is represented as mean±STDEV (n=6 fields of view with >30 cells each). P-values were calculated using a two-tailed unpaired t-test. […]

[2] = system: K-Ras mutant tumor cell lines (KRPC, MiaPaCa-2, A549); experiment: Proliferation of K-Ras mutant tumor cell lines; type: cell-based; settings: 250 nM torin 1
Protocol: Dashed lines indicate starting cell numbers. P-values were calculated using a two-tailed unpaired t-test. ***p<0.001. […] Under experimental conditions, cells have abundant glucose supplied in their medium and are thus unlikely to utilize leucine for lipid as opposed to protein synthesis during anabolic growth. Consistent with this, when cells were labeled with ^14C-leucine, the ratio of protein to lipid incorporation of label was: control cells 364±69, torin-1 treated cells 203±27, raptor-deficient cells 87±3. Data are represented as mean±STDEV (n=3).
as §1, with “For mTOR activation and localization experiments, cells were rinsed and then incubated in EAA starvation medium (DMEM/F12 lacking all amino acids except glutamine) for 1 h, and subsequently placed in medium supplemented with EAAs (1×MEM amino acid solution), albumin (3%, if not stated otherwise) or fresh EAA-free starvation medium for indicated periods of time.” left out

[3] = system: Ulk1/2 DKO MEFs expressing K-Ras^G12V; experiment: Proliferation of Ulk1/2 DKO MEFs expressing K-Ras^G12V; type: cell-based, mouse; settings: leucine-free medium containing 3% albumin; 250 nM torin 1
Protocol: as §2

CCC(=O)N1CCN(c2ccc(-n3c(=O)ccc4cnc5ccc(-c6cnc7ccccc7c6)cc5c43)cc2C(F)(F)F)CC1 [torin 1]
cellular uptake of fluorescently labeled dextran or albumin (K-Ras^G12D MEFs): neither torin 1 nor Raptor knockdown elevated cellular uptake | albumin-induced S6K1 phosphorylation (mTORC1): completely suppressed | DQ-BSA proteolysis in response to torin 1 [1]: comparable increase in DQ-BSA proteolysis | cell proliferation ([2]; leucine-containing medium +3% albumin, day 3): strongly decreased their proliferation | cell proliferation ([2]; leucine-free medium +3% albumin, day 4): induced several carcinoma cell lines harboring activating Ras mutations to proliferate | cell proliferation [3]: enhanced proliferation
